According to ChEMBL document CHEMBL1122775, “NMR spectroscopic studies of intermediary metabolites of cyclophosphamide. A comprehensive kinetic analysis of the interconversion of cis- and trans-4-hydroxycyclophosphamide with aldophosphamide and the concomitant partitioning of aldophosphamide between irreversible fragmentation and reversible …” (J Med Chem, 1984):

Assay: pKa was determined
Type: physicochemical

SMILES | pKa
COc1ccc(N)cc1 | 5.3
CC(C)(C)N [TERT-BUTYLAMINE] | 10.8
